Legend:
[1] = molecular target: T1, Nicotinamide N-methyltransferase (Homo sapiens, UniProt P40261); assay: Inhibition of human NNMT in human K562 cells measured after 24 hrs by quantitative mass spectrometry; assay type: cell-based
T1 sequence (P40261 whole entry): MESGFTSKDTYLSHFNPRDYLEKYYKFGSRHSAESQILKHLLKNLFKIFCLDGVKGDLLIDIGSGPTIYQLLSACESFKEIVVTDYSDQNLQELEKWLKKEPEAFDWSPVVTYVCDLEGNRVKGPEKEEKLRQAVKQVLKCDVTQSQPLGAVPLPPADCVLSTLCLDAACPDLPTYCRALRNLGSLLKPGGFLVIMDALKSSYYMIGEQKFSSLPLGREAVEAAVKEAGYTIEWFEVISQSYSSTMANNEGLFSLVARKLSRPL

[2] = Microsomal stability in human liver microsomes assessed as compound remaining after 60 mins by LC-MS/MS analysis; assay type: ADME, Microsome; conditions: for remaining at 1 h: liver microsomes, read-out: Stability
[3] = Microsomal stability in mouse liver microsomes assessed as compound remaining after 60 mins by LC-MS/MS analysis; assay type: ADME, Microsome; conditions: for remaining at 1 h: liver microsomes, read-out: Stability; for Stability: microsomes, 1 h
[4] = Half life in C57BL6/N mouse at 50 mg/kg, po measured upto 24 hrs by LC-MS/MS analysis; assay type: ADME, organism-based; conditions: in vivo
[5] = Half life in C57BL6/N mouse at 10 mg/kg, po measured upto 24 hrs by LC-MS/MS analysis; assay type: ADME, organism-based; conditions: in vivo
[6] = Tmax in C57BL6/N mouse at 50 mg/kg, po measured upto 24 hrs by LC-MS/MS analysis; assay type: ADME, organism-based; conditions: in vivo
[7] = Cmax in C57BL6/N mouse at 50 mg/kg, po measured upto 24 hrs by LC-MS/MS analysis; assay type: ADME, organism-based; parameters: dose 50 mg/kg, time < 24 hrs, route po; conditions: in vivo
[8] = AUClast in C57BL6/N mouse at 50 mg/kg, po measured upto 24 hrs by LC-MS/MS analysis; assay type: ADME, organism-based; parameters: time < 24 hrs, dose 50 mg/kg, route po; conditions: in vivo; for AUC(0-t) at 24 h: C57BL6/N
[9] = Clearance in C57BL6/N mouse at 1 mg/kg, iv measured upto 24 hrs by LC-MS/MS analysis; assay type: ADME, organism-based; conditions: in vivo
[10] = Oral bioavailability in C57BL6/N mouse at 50 mg/kg measured upto 24 hrs by LC-MS/MS analysis; assay type: ADME, organism-based; conditions: in vivo; for bioavailability: C57BL6/N
[11] = molecular target: T1, Nicotinamide N-methyltransferase
Description: Inhibition of human NNMT measured after 20 mins by luminescence based methyltransferase assay

CYP450 = CYP450 (Homo sapiens, UniProt P04798+P05177+P05181+P08684+P10632+P10635+P11509+P11712+P13584+P20813+P20815+P20853+P24462+P24903+P33260+P33261+P51589+P78329+P98187+Q02928+Q08477+Q16678+Q16696+Q5TCH4+Q6VVX0+Q7Z449+Q8TAV3+Q96SQ9+Q9HB55); assay: Inhibition of CYP450 (unknown origin); assay type: ADME, protein assay
[12] = Aqueous solubility of compound at pH 7.4; assay type: physicochemical; conditions: aqueous medium
[13] = Volume of distribution at steady state in C57BL6/N mouse; assay type: ADME; conditions: in vivo, read-out: Vdss
hERG = hERG (Homo sapiens, UniProt Q12809); assay: Inhibition of hERG; assay type: toxicity
[14] = Plasma protein binding in human; assay type: ADME, cell-free; conditions: read-out: PPB
[15] = Plasma protein binding in mouse; assay type: ADME, cell-free; conditions: read-out: PPB
[16] = Toxicity in C57BL6/N mouse assessed as adverse effect at 50 to 100 mg/kg, po qd measured after 2 weeks; assay type: organism-based; conditions: in vivo, 336 h, dose 50-100 mg/kg
P-gp = P-gp (Homo sapiens, UniProt P08183); assay: Substrate activity at P-gp (unknown origin) assessed as efflux ratio; conditions: not told
[17] = Mutagenicity in Salmonella typhimurium by Ames test; assay type: toxicity; conditions: salmonella enterica subsp. enterica serovar typhimurium
[18] = Dissociation constant, pKa of the compound; assay type: physicochemical
[19] = substrate: C[C@@H]1Cc2cc(C(N)=O)cnc2N1; conditions: Homo sapiens
Description: Uncompetitive inhibition of human NNMT assessed as Km of nicotinamide

[20] = substrate: C[C@@H]1Cc2cc(C(N)=O)cnc2N1; conditions: Homo sapiens; remark: listed apart in the source
Description: Uncompetitive inhibition of human NNMT assessed as Km of SAM

Sequence of P-gp (P08183 whole entry): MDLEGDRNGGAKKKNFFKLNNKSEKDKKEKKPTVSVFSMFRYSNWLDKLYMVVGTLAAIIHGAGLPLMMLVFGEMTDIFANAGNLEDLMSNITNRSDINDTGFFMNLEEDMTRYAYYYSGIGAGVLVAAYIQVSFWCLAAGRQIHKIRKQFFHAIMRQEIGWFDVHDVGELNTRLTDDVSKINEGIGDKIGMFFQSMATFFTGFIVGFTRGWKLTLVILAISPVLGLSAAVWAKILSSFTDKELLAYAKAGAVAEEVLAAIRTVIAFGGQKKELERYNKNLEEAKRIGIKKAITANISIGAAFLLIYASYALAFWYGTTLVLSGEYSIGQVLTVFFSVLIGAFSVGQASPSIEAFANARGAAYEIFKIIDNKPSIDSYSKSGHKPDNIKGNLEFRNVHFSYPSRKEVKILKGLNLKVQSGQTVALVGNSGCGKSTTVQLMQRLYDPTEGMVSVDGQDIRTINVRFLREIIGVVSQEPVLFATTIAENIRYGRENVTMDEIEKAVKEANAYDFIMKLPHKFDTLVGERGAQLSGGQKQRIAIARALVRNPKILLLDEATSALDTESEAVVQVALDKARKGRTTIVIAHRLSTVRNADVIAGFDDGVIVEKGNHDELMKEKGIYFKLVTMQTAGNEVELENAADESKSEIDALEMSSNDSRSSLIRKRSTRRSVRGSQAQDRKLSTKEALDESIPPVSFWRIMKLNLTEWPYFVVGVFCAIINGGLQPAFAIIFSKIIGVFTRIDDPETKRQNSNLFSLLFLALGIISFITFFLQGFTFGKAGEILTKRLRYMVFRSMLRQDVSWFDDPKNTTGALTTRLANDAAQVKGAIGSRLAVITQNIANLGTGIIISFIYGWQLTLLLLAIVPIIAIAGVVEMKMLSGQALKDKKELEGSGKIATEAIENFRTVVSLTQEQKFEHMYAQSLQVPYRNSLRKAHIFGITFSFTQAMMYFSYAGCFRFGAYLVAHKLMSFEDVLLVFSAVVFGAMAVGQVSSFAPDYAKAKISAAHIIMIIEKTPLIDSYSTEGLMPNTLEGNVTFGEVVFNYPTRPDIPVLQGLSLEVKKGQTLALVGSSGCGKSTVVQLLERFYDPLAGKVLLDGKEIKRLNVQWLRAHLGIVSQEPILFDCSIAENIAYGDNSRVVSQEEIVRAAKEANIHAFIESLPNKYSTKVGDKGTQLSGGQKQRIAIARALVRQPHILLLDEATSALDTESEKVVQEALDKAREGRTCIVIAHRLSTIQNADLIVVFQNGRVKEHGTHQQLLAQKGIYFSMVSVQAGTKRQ
Sequence of hERG (Q12809 whole entry): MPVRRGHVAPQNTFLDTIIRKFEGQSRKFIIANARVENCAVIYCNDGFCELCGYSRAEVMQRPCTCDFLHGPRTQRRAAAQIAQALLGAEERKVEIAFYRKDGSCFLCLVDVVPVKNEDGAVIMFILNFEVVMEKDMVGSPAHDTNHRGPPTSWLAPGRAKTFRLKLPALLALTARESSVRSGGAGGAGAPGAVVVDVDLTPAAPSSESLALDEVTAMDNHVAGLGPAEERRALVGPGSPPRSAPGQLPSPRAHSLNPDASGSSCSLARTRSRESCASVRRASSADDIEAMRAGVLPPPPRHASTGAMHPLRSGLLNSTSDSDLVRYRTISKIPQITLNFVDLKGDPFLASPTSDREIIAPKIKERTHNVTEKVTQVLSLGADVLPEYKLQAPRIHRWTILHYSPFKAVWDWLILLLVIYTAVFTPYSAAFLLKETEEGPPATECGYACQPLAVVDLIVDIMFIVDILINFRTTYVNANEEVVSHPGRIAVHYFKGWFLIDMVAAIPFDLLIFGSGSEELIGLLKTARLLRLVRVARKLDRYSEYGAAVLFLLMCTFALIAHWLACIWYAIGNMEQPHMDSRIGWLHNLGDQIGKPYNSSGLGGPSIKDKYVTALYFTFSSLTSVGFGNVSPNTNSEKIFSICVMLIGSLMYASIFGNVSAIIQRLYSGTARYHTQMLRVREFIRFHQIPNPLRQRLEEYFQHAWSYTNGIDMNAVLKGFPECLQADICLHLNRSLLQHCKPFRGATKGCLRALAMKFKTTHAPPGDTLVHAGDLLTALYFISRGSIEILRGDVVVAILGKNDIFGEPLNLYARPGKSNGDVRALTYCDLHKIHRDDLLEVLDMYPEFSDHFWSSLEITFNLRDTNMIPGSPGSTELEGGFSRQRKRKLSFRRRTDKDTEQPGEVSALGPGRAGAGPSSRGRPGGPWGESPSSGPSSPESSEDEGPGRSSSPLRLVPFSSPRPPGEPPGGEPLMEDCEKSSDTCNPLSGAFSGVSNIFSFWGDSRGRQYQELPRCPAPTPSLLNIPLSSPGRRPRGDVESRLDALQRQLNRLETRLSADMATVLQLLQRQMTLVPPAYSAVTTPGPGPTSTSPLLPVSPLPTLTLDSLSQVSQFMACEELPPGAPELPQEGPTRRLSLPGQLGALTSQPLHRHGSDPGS

Cc1c(C(N)=O)cnc2c1CCN2
IC50 [1]: 23 nM
remaining at 1 h [2]: 85%
remaining at 1 h [3]: 47%
half-life [4]: 32.6 min
half-life [5]: 22.2 min
Tmax [6]: 15 min
Cmax [7]: 13500 ng/mL
AUC(0-t) at 24 h [8]: 9220 ng·h/mL
clearance [9]: 182 mL/min/kg
F ([10]; po, 50 mg/kg, 24 h): 191%
IC50 [11]: 102 nM

CNc1cc(OC)c(C(N)=O)cn1
IC50 [11]: > 10000 nM

C[C@@H]1Cc2c(ncc(C(N)=O)c2Cl)N1
IC50 [11]: 48 nM

NC(=O)c1cnc2c(c1)CCN2
IC50 [1]: 142 nM
remaining at 1 h [2]: 100%
remaining at 1 h [3]: 89%
half-life [4]: 87.6 min
half-life [5]: 23.4 min
Tmax [6]: 15 min
Cmax [7]: 28700 ng/mL
AUC(0-t) at 24 h [8]: 29000 ng·h/mL
clearance [9]: 64.2 mL/min/kg
IC50 [11]: 175 nM

NC(=O)c1cnc2[nH]ncc2c1
IC50 [11]: > 10000 nM

CNc1ncc(C(N)=O)cn1
IC50 [11]: > 10000 nM

CCOc1cc(C)c(C(N)=O)cn1
IC50 [11]: > 10000 nM

CNc1ncc(C(N)=O)c(C)n1
IC50 [11]: > 10000 nM

CNc1cc(C)c(C(N)=S)cn1
IC50 [11]: > 10000 nM

NC(=O)c1cnc2[nH]ccc2c1Cl
IC50 [11]: > 10000 nM

CNc1cc(Cl)c(C(N)=O)cn1
IC50 [11]: 639 nM

CNc1cc(C)c(C(N)=O)cn1
IC50 [1]: 25 nM
remaining at 1 h [2]: 95%
remaining at 1 h [3]: 85%
half-life [4]: 107 min
half-life [5]: 66.6 min
Cmax [7]: 38900 ng/mL
AUC(0-t) at 24 h [8]: 30700 ng·h/mL
clearance [9]: 62.8 mL/min/kg
IC50 [11]: 282 nM

C[C@H]1Cc2cc(C(N)=O)cnc2N1
IC50 [11]: > 10000 nM

C[C@@H]1Cc2cc(C(N)=O)c[n+](C)c2N1
IC50 [11]: 6240 nM

C[C@@H]1Cc2cc(C(N)=O)cnc2N1
IC50 [1]: 38 nM
remaining at 1 h [2]: 97%
remaining at 1 h [3]: 93%
half-life [4]: 173 min
half-life [5]: 78.5 min
Tmax [6]: 15 min
Cmax [7]: 22500 ng/mL
AUClast ([8]; 24 h): 5115 ng·h/mL
IC50 (CYP450): > 100000 nM
solubility [12]: ≥ 50 µg/mL
Vd [13]: 0.877 L/kg
IC50 (hERG): > 30000 nM
fraction unbound [14]: > 0.62
fraction unbound [15]: > 0.76
Activity [16]: Non-Toxic
efflux ratio (P-gp): 0.79
Activity [17]: Non-Toxic
IC50 [11]: 42 nM

COc1ccc(C(N)=O)cn1
IC50 [11]: 1390 nM

CNc1ncc(C(N)=O)c(C)c1C
IC50 [11]: > 10000 nM

CNc1ncc(C(N)=O)s1
IC50 [11]: > 10000 nM

COc1ccccn1
pKa [18]: 3.28

Cc1c(C(N)=O)cnc2c1C[C@@H](C)N2
IC50 [1]: 12 nM
remaining at 1 h [2]: 91%
Stability [3]: Unstable
Tmax [6]: 20 min
Cmax [7]: 11200 ng/mL
AUC(0-t) at 24 h [8]: 12100 ng·h/mL
clearance [9]: 90 mL/min/kg
bioavailability [10]: 129%
IC50 [11]: 43 nM

C[C@H]1Nc2ncc(C(N)=O)cc2[C@@H]1C
IC50 [1]: 114 nM
Stability ([2]; microsomes, 1 h): Unstable
Stability [3]: Unstable

NC(=O)c1cnc2c(c1)OCCN2
IC50 [11]: > 10000 nM

CNc1cc(C(F)(F)F)c(C(N)=O)cn1
IC50 [11]: > 10000 nM

NC(=O)c1ccc(N)nc1 [6-AMINONICOTINAMIDE]
IC50 [11]: 3620 nM

CNc1ccncc1C(N)=O
IC50 [11]: > 10000 nM

NC(=O)c1cnc2c(c1)CCCN2
IC50 [11]: 740 nM

NC(=O)c1cnc2c(c1Cl)CCN2
IC50 [1]: 79 nM
remaining at 1 h [2]: 57%
remaining at 1 h [3]: 40%
half-life [4]: 172 min
half-life [5]: 27 min
Tmax [6]: 15 min
Cmax [7]: 5580 ng/mL
AUC(0-t) at 24 h [8]: 4330 ng·h/mL
clearance [9]: 179 mL/min/kg
bioavailability [10]: 90%
IC50 [11]: 92 nM

C[C@@H]1Nc2ncc(C(N)=O)cc2[C@H]1C
IC50 [11]: > 10000 nM

Cc1c(C(N)=O)c[n+]([O-])c2c1CCN2
IC50 [11]: 7050 nM

B1: Nicotinamide N-methyltransferase (Homo sapiens), P40261 (protein)
chain: MESGFTSKDTYLSHFNPRDYLEKYYKFGSRHSAESQILKHLLKNLFKIFCLDGVKGDLLIDIGSGPTIYQLLSACESFKEIVVTDYSDQNLQELEKWLKKEPEAFDWSPVVTYVCDLEGNRVKGPEKEEKLRQAVKQVLKCDVTQSQPLGAVPLPPADCVLSTLCLDAACPDLPTYCRALRNLGSLLKPGGFLVIMDALKSSYYMIGEQKFSSLPLGREAVEAAVKEAGYTIEWFEVISQSYSSTMANNEGLFSLVARKLSRPL
Km [19]: 13.9 µM
Km [20]: 20.2 µM
